Bounds are passed on as bounds.

This passage reports EC50 results from US12091398B2, “PD-L1 antagonist compound” (ADLAI NORTYE BIOPHARMA CO., LTD., priority 2019, dated 2024).

For the first test, the system named is PD-1/PD-L1 interaction. The experiment in a line: Cell based PD-1/PD-L1 NFAT reporter assay. Set-up: species or system human. The settings on record: Homo sapiens, 6 h, PD-1/NFAT-Reporter-Jurkat cells co-cultured with TCR activator/PD-L1-CHO cells; 6 hour incubation; luciferase; calibrated to Atezolizumab 10 nM; read-out: Absolute EC50. As for the experimental part:
Cell Based PD-1/PD-L1 NFAT Reporter Assay
Compounds of the present patent were tested in a cell based PD-1/PD-L1 NFAT reporter assay.
The cell-based luciferase reporter assay is used for monitoring the PD-1/PD-L1 inhibitor by characterizing the biological activity of PD-1: PD-L1 interactions in cellular context. PD-1/NFAT-Reporter-Jurkat cells stably over-expressing human PD-1 with NFAT reporter are used as effector cells. TCR activator/PD-L1—CHO cells over-expressing PD-L1 and an engineered T cell receptor (TCR) activator are used as target cells. When these two cells are co-cultivated, TCR complexes on effector cells are activated by TCR activator on target cells, resulting in expression of the NFAT luciferase reporter. However, PD1 and PD-L1 (or PD-L2) ligation prevents TCR activation and suppresses the NFAT-responsive luciferase activity. This inhibition can be specifically reversed by anti-PD1 or anti-PD-L1 inhibitors. PD1/PD-L1 inhibitors block PD1:PD-L1 interaction and promote TCR activation, resulting in reactivation of the NFAT responsive luciferase reporter.
PD-1/NFAT—Reporter—Jurkat cell (Cat: 60535) and TCR activator/PD-L1—CHO cell (Cat: 60536) were purchased from BPS Bioscience. Anti-human PD-L1 antibody (Atezolizumab, Cat: A2004) was purchased from Selleck; luciferase reporter gene expression detection kit (ONE-Glo™ Luciferase Assay System, Cat: E6120) was purchased from Promega; multifunction plate reader (SpectraMax i3x) was purchased from Molecular Devices.
PD-1/NFAT—Reporter—Jurkat cells and TCR activator/PD-L1—CHO cells were cultured in recommended media respectively.
Harvest TCR activator/PD-L1-CHO cells from culture and seed cells at a density of 35,000 cells per well into 96-well microplate in 100 µl of growth medium. Incubate cells at 37° C. in a CO2 incubator overnight. Next day, discard the culture media, add diluted compound in assay medium for 30 min. Anti-PD-L1 antibody (Atezolizumab, final concentration 10 nM) and 0.1% DMSO were the positive and negative control, respectively. Harvest the PD-1/NFAT-reporter-Jurkat cells by centrifugation and add to the wells. After 6 hour incubation, perform luciferase assay using the ONE-Glo™ Luciferase Assay System, following the manufacturer's assay protocol.
Anti-PD-L1 antibody (Atezolizumnab, 10 nM) was used as positive control to calibrate the inhibition rate using the following equation: % inhibition=(Sample luminescence/Average vehicle group luminescence−1)/(Average PD-L1 group luminescence/Average vehicle group luminescence−1)×100%.
As to `COc1cc(Cn2ncc3c(-c4cccc(COc5cc(OCc6cncc(C#N)c6)c(CN[C@@H](CO)C(=O)O)cc5Cl)c4C)cccc32)c(Cl)cc1CN[C@@H](CO)C(=O)O` [Compound 67, (4-((4-(3-((4-((((S)-1-carboxy-2-hydroxyethyl)amino)methyl)-2-chloro-5-((5-cyanopyridin-3-yl)methoxy)phenoxy)methyl)-2-methylphenyl)-1H-indazol-1-yl)methyl)-5-chloro-2-methoxybenzyl)-L-serine], the EC50 is 89 nM.

For `COc1cc(OCc2cccc(-c3cccc4c3cnn4Cc3cc(OCc4cncc(C#N)c4)c(CNCCO)cc3Cl)c2C)c(Cl)cc1CNCCO` [Compound 68, 5-((4-chloro-5-((4-(3-((2-chloro-4-(((2-hydroxyethyl)amino)methyl)-5-methoxyphenoxy)methyl)-2-methylphenyl)-1H-indazol-1-yl)methyl)-2-(((2-hydroxyethyl)amino)methyl)phenoxy)methyl)nicotinonitrile], the concentration giving a half-maximal response (EC50) was 348 nM.

Regarding `COc1cc(OCc2cccc(-c3cccc4c3cnn4Cc3cc(OCc4cncc(C#N)c4)c(CNC[C@@H]4CCC(=O)N4)cc3Cl)c2C)c(Cl)cc1CNC[C@@H]1CCC(=O)N1` [Compound 69, 5-((4-chloro-5-((4-(3-((2-chloro-5-methoxy-4-(((((S)-5-oxopyrrolidin-2-yl)methyl)amino)methyl)phenoxy)methyl)-2-methylphenyl)-1H-indazol-1-yl)methyl)-2-(((((S)-5-oxopyrrolidin-2-yl)methyl)amino)methyl)phenoxy)methyl)nicotinonitrile], the EC50 is 157 nM.

Consider `COc1cc(OCc2cccc(-c3cccc4c3cnn4Cc3cc(OCc4cncc(C#N)c4)c(CN4CCC(C)(C(=O)O)C4)cc3Cl)c2C)c(Cl)cc1CN1CCC(C)(C(=O)O)C1` (centres unmarked) [Compound 70, 1-(4-((3-(1-(4-((3-carboxy-3-methylpyrrolidin-1-yl)methyl)-2-chloro-5-((5-cyanopyridin-3-yl)methoxy)benzyl)-1H-indazol-4-yl)-2-methylbenzyl)oxy)-5-chloro-2-methoxybenzyl)-3-methylpyrrolidine-3-carboxylic acid], for which the 50% effective concentration (EC50) came out at 5850 nM. On the same count and under the same terms, for `Cc1c(COc2cc(OCc3cncc(C#N)c3)c(CNCCO)cc2Cl)cccc1-c1cccc2c1cnn2Cc1cc(OCc2cncc(C#N)c2)c(CNCCO)cc1Cl` [Compound 71] the value was 134 nM; for `COc1cc(OCc2cccc(-c3cccc4c3cnn4Cc3cc(OCc4cncc(C#N)c4)c(CN)cc3Cl)c2C)c(Cl)cc1CN` [Compound 72], greater than 1110 nM.

Turning to `COc1cc(OCc2cccc(-c3cccc4c3cnn4Cc3cc(OCc4cncc(C#N)c4)c(CN)cc3Cl)c2C)c(Cl)cc1CN[C@@H](CO)C(=O)O` [Compound 73], the EC50 is 448 nM. Still for that read-out and setting: the same measure for `COc1cc(OCc2cccc(-c3cccc4c3cnn4Cc3cc(OCc4cncc(C#N)c4)c(CN[C@@H](CO)C(=O)O)cc3Cl)c2C)c(Cl)cc1CN` [Compound 74]: 2700 nM; for `Cc1c(COc2cc(OCc3cncc(C#N)c3)c(CN)cc2Cl)cccc1-c1cccc2c1cnn2Cc1cc(OCc2cncc(C#N)c2)c(CN)cc1Cl` [Compound 75]: 2830 nM. Still for that read-out and setting: the same measure for `COc1nc(-c2cccc(-c3cccc4c3cnn4Cc3cc(OCc4cncc(C#N)c4)c(CN[C@@H](CO)C(=O)O)cc3Cl)c2Cl)ccc1CNC[C@@H]1CCC(=O)N1` [Compound 76]: 34 nM.

On to `N#Cc1cncc(COc2cc(Cn3ncc4c(-c5cccc(-c6ccc(CNC[C@@H]7CCC(=O)N7)cc6)c5Cl)cccc43)c(Cl)cc2CN[C@@H](CO)C(=O)O)c1` [Compound 77], for which the EC50 worked out at 28 nM. Take `COc1cc(OCc2cccc(-c3cccc4c3c(C)nn4Cc3cc(OCc4cncc(C#N)c4)c(CN[C@@H](CO)C(=O)O)cc3Cl)c2C)c(Cl)cc1CN[C@@H](CO)C(=O)O` [Compound 78]: the 50% effective concentration (EC50) was 1600 nM. On to `N#Cc1cncc(COc2cc(OCc3cccc(-c4cccc5c4cnn5CCCCN4CC[C@@H](O)C4)c3Br)c(Cl)cc2CN2CC[C@H](O)C2)c1` [Compound 79], for which the concentration for a half-maximal effect (EC50) is greater than 370 nM. Regarding `N#Cc1cncc(COc2cc(OCc3cccc(-c4cccc5c4cnn5CCCCN4CC[C@@H](O)C4)c3Br)c(Cl)cc2CNCCO)c1` [Compound 80], the concentration giving a half-maximal response (EC50) is 318 nM. `C[C@H](CO)NCc1cc(Cl)c(OCc2cccc(-c3cccc4c3cnn4CCCCN3CC[C@@H](O)C3)c2Br)cc1OCc1cncc(C#N)c1` [Compound 81]: the EC50 was determined as 221 nM. Turning to `N#Cc1cncc(COc2cc(OCc3cccc(-c4cccc5c4cnn5CCCCN4CC[C@@H](O)C4)c3Br)c(Cl)cc2CN2CC[C@@H](O)C2)c1` [Compound 82], the concentration giving a half-maximal response (EC50) turned out to be 339 nM. As to `N#Cc1cncc(COc2cc(OCc3cccc(-c4cccc5c4cnn5CCCCN4CC[C@@H](O)C4)c3Br)c(Cl)cc2CNC[C@@H]2CCC(=O)N2)c1` [Compound 83], the 50% effective concentration (EC50) stood at 232 nM. For `CC1(C(=O)O)CCN(Cc2cc(Cl)c(OCc3cccc(-c4cccc5c4cnn5CCCCN4CC[C@@H](O)C4)c3Br)cc2OCc2cncc(C#N)c2)C1` (some centres unmarked) [Compound 84], the EC50 was 1750 nM. The same measure, in the same setting: for `N#Cc1cncc(COc2cc(OCc3cccc(-c4cccc5c4cnn5CCCCN4CC[C@@H](O)C4)c3Br)c(Cl)cc2CN2CCCC2)c1` [Compound 85] the value was greater than 370 nM; for `N#Cc1cncc(COc2cc(OCc3cccc(-c4cccc5c4cnn5CCCCNC[C@@H]4CCC(=O)N4)c3Br)c(Cl)cc2CN[C@@H](CO)C(=O)O)c1` [Compound 86], 214 nM; for `N#Cc1cncc(COc2cc(OCc3cccc(-c4cccc5c4cnn5CCCNC[C@@H]4CCC(=O)N4)c3Br)c(Cl)cc2CN[C@@H](CO)C(=O)O)c1` [Compound 87, (4-((2-bromo-3-(1-(3-((((S)-5-oxopyrrolidin-2-yl)methyl)amino)propyl)-1H-indazol-4-yl)benzyl)oxy)-5-chloro-2-((5-cyanopyridin-3-yl)methoxy)benzyl)-L-serine], 98 nM.

Regarding `Cc1c(OCCCN2CC[C@@H](O)C2)cccc1-c1ccnc2c1cnn2Cc1cc(OCc2cncc(C#N)c2)c(CN[C@@H](CO)C(=O)O)cc1Cl` [Compound 88, (5-chloro-2-((5-cyanopyridin-3-yl)methoxy)-4-((4-(3-(3-((R)-3-hydroxypyrrolidin-1-yl)propoxy)-2-methylphenyl)-1H-pyrazolo[3,4-b]pyridin-1-yl)methyl)benzyl)-L-serine], the EC50 came out at 1030 nM. Turning to `Cc1c(OCCCN2CC[C@@H](O)C2)cccc1-c1cncc2c1cnn2Cc1cc(OCc2cncc(C#N)c2)c(CN[C@@H](CO)C(=O)O)cc1Cl` [Compound 89, (5-chloro-2-((5-cyanopyridin-3-yl)methoxy)-4-((4-(3-(3-((R)-3-hydroxypyrrolidin-1-yl)propoxy)-2-methylphenyl)-1H-pyrazolo[3,4-c]pyridin-1-yl)methyl)benzyl)-L-serine], the EC50 was 5450 nM. With `COc1cc(Cn2ccc3c(-c4cccc(-c5ccc(CNC[C@@H]6CCC(=O)N6)cc5)c4Cl)cccc32)c(Cl)cc1CN[C@@H](CO)C(=O)O` [Compound 91, (5-chloro-4-((4-(2-chloro-4′-(((((S)-5-oxopyrrolidin-2-yl)methyl)amino)methyl)-[1,1′-biphenyl]-3-yl)-1H-indol-1-yl)methyl)-2-methoxybenzyl)-L-serine], the half-maximal effective concentration (EC50) was determined as 518 nM. With `COc1cc(Cn2nnc3c(-c4cccc(-c5ccc(CNC[C@@H]6CCC(=O)N6)cc5)c4Cl)cccc32)c(Cl)cc1CN[C@@H](CO)C(=O)O` [Compound 92, (5-chloro-4-((4-(2-chloro-4′-(((((S)-5-oxopyrrolidin-2-yl)methyl)amino)methyl)-[1,1′-biphenyl]-3-yl)-1H-benzo[d][1,2,3]triazol-1-yl)methyl)-2-methoxybenzyl)-L-serine], the EC50 was found to be 416 nM.

The test is the same for the next values; noted with them: Homo sapiens; PD-1/NFAT-Reporter-Jurkat cells co-cultured with TCR activator/PD-L1-CHO cells; 6 hour incubation; luciferase; calibrated to Atezolizumab 10 nM; read-out: Absolute EC50.
Take `N#Cc1cncc(COc2cc(Cn3ncc4c(-c5cccc(OCc6ccc(CN7CC[C@@H](O)C7)cc6)c5Cl)cccc43)c(Cl)cc2CN[C@@H](CO)C(=O)O)c1` [Compound 90, (5-chloro-4-((4-(2-chloro-3-((4-(((R)-3-hydroxypyrrolidin-1-yl)methyl)benzyl)oxy)phenyl)-1H-indazol-1-yl)methyl)-2-((5-cyanopyridin-3-yl)methoxy)benzyl)-L-serine]: the EC50 was 1060 nM.
